Experimental data from patent US20100004342A1, “LFA-1 Inhibitors and Use Thereof” (priority 2003, published 2010).
Entries after “also recorded” stand apart in the source; their conditions may differ. Where two headings read alike, the source gives them in different places.

Experiments:
[1] = system: vascular endothelial cell; settings: cited from earlier work
LFA-1 and ICAM-1 = LFA-1 and ICAM-1 (Homo sapiens, UniProt P20701); settings: cited from earlier work
CD11a = test: Detection of cell membrane differentiation antigen CD11a of human peripheral blood monocyte (FACS); format: cell-based; settings: for number of the cell expressing CD11a on the cell surface / rate to the total cells of the cells with expression of CD11a or CD18: peripheral blood monocytes cultured with polyamine
Excerpt: (§1) Human peripheral blood was collected, and peripheral blood monocytes including lymphocyte, monocyte and the like were recovered from the collected blood by specific gravity centrifugation technique using SEPARATE-L (Muto Pure Chemicals Co. LTD., Tokyo, Japan). Next, the recovered peripheral blood monocytes were suspended in PRMI1640 culture medium (Sigma chemical co., St. Louis, USA) mixed with 10% human serum (Wako Pure Chemical Industries LTD., Osaka, Japan), 0.1% L-glutamine (Invitrogen Corp., CA, USA), and 0.01% penicillin-streptomycin (Invitrogen Corp., CA, USA) and cultured in the humidified air at 37° C. containing 5% carbonic acid gas. […] Following culture for a given time, the peripheral blood monocytes were recovered from the culture medium and used in Examples 2, 4, 5, and 6.
For confirming that obtained experimental results were not derived from changes produced by the polyamines present in the culture medium and kept in contact with the cells for a long time, different peripheral blood monocytes were prepared.
(§2) The peripheral blood monocytes cultured for 16 to 80 hours by the method of Example 1 were collected from the cell culture plate so as not to damage the cells. The collected cells were washed with PBS (−) solution and then fixed using phosphate buffered saline without calcium chloride and without magnesium chloride (hereinafter, referred to as PBS (−); Invitrogen Corporation, GIBCO, Grand Island, N.Y., USA) containing 2% paraformaldehyde (Wako Pure Chemical Industries LTD, Osaka, Japan), so as not to achieve change in cell membrane antigen molecules on the cell surface of the peripheral blood monocytes. The peripheral blood monocytes were further washed, to which antibodies to the cell membrane antigen molecules were then added in an amount corresponding to 5 μL (microliter) per 500000 cells. The antibodies used here are CD2 (FITC label), CD4 (FITC), CD8 (PE label), CD11a (FITC), CD11b (PE), CD11c (PE), CD18 (FITC), CD31 (PE), CD49d (PE), CD49e (PE), CD54 (PE), CD62L (PE), CD95 (FITC), and VIA-PROBE (FITC). All of these antibodies are manufactured by PharMingen (A Becton Dickinson Company, San Jose, Calif., USA).
(§3) After each antibody was added to the cells and reacted in the dark for 20 minutes, positive rate and light intensity of the cell membrane differentiation antigen expressed in the cultured peripheral blood were measured with FACS analyzer (FACSCalibur; manufactured by Becton Dickinson) (Becton Dickinson Japan, Tokyo). The population of the peripheral blood monocytes was of interest in the measurement of florescence of the cell surface, and the measurement of all of the cultured cells was also conducted at the same time. Further, a negative control was used, and a measurement gate was set to obtain each antibody positive rate of the cells within the gate and average fluorescence intensity of the positive cells.

[2] = system: vascular endothelial cells; test: Peripheral blood monocyte adhesion to vascular endothelial cell (BCECF-AM); format: cell-based, human; settings: for number of the cells adhering to the vascular endothelial cells: cultured with 100 or 500 μM polyamine for 72 to 80 hours, compared with culture without
[3] = system: peripheral blood monocytes; test: Peripheral blood monocyte adhesion to culture plate (MTT); format: cell-based, human; settings: for number of the cells adhering on the plate surface: cultured with varying concentrations of polyamines for 70 to 80 hours; for inhibition effect on cell adhesion to the cell culture plate: culture for approximately 16 to 24 hours
Description: Peripheral blood monocytes were cultured on a 96-well cell culture plate using the culture medium described above. […] Following the culture, the cell culture plate was washed three times with PBS (−) solution to remove the cells floating in the culture medium. As a result, there remained only the cells adhering on the inside bottom of the cell culture plate. […] The culture supernatant was removed. As a result, there remained only the cells firmly adhering on the inside bottom of the cell culture plate, as described above. […] Thiazolyl blue (MTT) (C18H16N5SBr) (Sigma. St. Louis, USA) was added in the final concentration of 0.35 mg/mL, and the cells were cultured at 37° C. for 2 to 4 hours until the cells were stained. MTT is taken up into cells, and the dye is discolored only in live cells. Therefore, the amount of the live cells existing can be confirmed from the amount of the dye. This means that the larger the amount of the dye is, the higher the number of the cells and the cell activity are. After the cells were sufficiently stained with MTT, the culture supernatant was removed by aspiration. The cells were dissolved by addition of 100 μl of cell lysis solution (2-propanol (isopropanol; Wako Pure Chemical Industries LTD, Osaka, Japan) mixed with 12 M (mol/L) hydrochloric acid (HCl; Wako Pure Chemical Industries LTD, Osaka, Japan)), to recover the dye in the cells. Absorbance in the cell culture plate was measured at 2 absorbance wavelengths of 570 nm and 690 nm using an absorbance reader (Titertek Multiskan MCC/340, Labsystems, Flow Laboratories Inc., USA).

rats [4] = settings: cited from earlier work
[5] = system: adhesion molecules (CD11b, CD11c, CD31, CD49d, CD49e, CD54, and CD62L); test: Detection of adhesion molecules except CD11a and CD18 on human peripheral blood monocyte (FACS); format: cell-based; settings: for average fluorescence intensity of adhesion molecules (CD11b, CD11c, CD31, CD49d, CD49e, CD54, and CD62L) except CD11a and CD18: peripheral blood monocytes cultured with polyamine
Excerpt: as §1, §2, §3

rats [6] = settings: cited from earlier work; remark: listed apart in the source
[7] = system: peripheral blood monocytes; settings: for cellular cytotoxicity: peripheral blood monocytes, VIA-Probe
Excerpt: as §1, §2, §3

CD18 = test: Detection of cell membrane differentiation antigen CD18 of human peripheral blood monocyte (FACS); format: cell-based; settings: peripheral blood monocytes cultured with polyamine
Excerpt: as §1, with “6. […]” for “6.”
as §3, with “The population of the peripheral blood monocytes was of interest in the measurement of florescence of the cell surface, and the measurement of all of the cultured cells was also conducted at the same time.” left out

[8] = system: peripheral blood monocytes; test: Blastogenesis of peripheral blood monocytes by Con-A or PHA (3H-thymidine); format: cell-based, human; settings: cultured with 100 μM polyamine for approximately 12 to 18 hours
Description: Following the culture, the cells were washed three times with PBS (−) to remove extracellular polyamines, The washed peripheral blood monocytes were cultured for 64 hours in culture medium (RPMI1640 containing 10% fetal bovine serum) mixed with PHA (Difco Laboratories, Detroit, Mich., USA) or Con-A (Sigma chemical co., St. Louis, USA). Then, ^3H-thymidine (Amersham) was added to the cells, followed by additional culture for 8 hours. Following the culture, the peripheral blood monocytes were recovered, and radioactivity of the cells was measured (liquid scintillation counter, LKB-1205, LKB). Since the peripheral blood monocytes activated by mitogen (PHA, Con-A, or the like) cause blast transformation, the cells take up ^3H-thymidine therein. Accordingly, function of cell activation can be measured by measuring the amount of intracellular ^3H-thymidine.

[9] = system: peripheral blood monocytes; test: Number and activity of the total cultured cells (MTT), cytotoxicity check; format: cell-based, human; settings: for cellular cytotoxicity to the peripheral blood monocytes: high concentrations (up to 1 mM); for amount of the MTT dye taken up into the cells (total cultured cells): total cells in the plate, varying polyamine concentration
Description: Then, the culture supernatant in the plate was removed with the utmost caution not to soak up the cells adhering on the inside bottom of the plate. This means that all the cells present in the cell culture plate exist on the inside bottom of the plate. […] Absorbance of the cell culture medium was measured at 2 absorbance wavelengths of 570 nm and 690 nm using an absorbance reader (Titertek Multiskan MCC/340, Labsystems, Flow Laboratories Inc., USA). As a result, each polyamine concentration and the total amount of live cells of the cultured peripheral blood monocytes can be confirmed.

[10] = system: functional cell membrane differentiation antigen except adhesion molecules
Excerpt: as §1, §2, §3

intestinal mucosa = settings: contained in meal; cited from earlier work
[11] = system: Daudi cells (Burkitt lymphoma cells); settings: cultured overnight with 100 μM spermine, then IL-2 for 72 hours
[12] = system: CD16, CD31, CD49d, and CD54; settings: peripheral blood monocyte accidentally infected; cultured with spermine
Description: as §2, with “The antibodies used here are CD2 (FITC label), CD4 (FITC), CD8 (PE label), CD11a (FITC), CD11b (PE), CD11c (PE), CD18 (FITC), CD31 (PE), CD49d (PE), CD49e (PE), CD54 (PE), CD62L (PE), CD95 (FITC), and VIA-PROBE (FITC). All of these antibodies are manufactured by PharMingen (A Becton Dickinson Company, San Jose, Calif., USA).” left out
as §3, with “The population of the peripheral blood monocytes was of interest in the measurement of florescence of the cell surface, and the measurement of all of the cultured cells was also conducted at the same time.” left out

psoriasis = settings: clinical examples, human; cited from earlier work
[13] = peripheral blood monocytes cultured with polyamine (0, 100, 500 μM) for 70 to 80 hours

LFA-1 and ICAM-1, sequence (P20701 26-1170): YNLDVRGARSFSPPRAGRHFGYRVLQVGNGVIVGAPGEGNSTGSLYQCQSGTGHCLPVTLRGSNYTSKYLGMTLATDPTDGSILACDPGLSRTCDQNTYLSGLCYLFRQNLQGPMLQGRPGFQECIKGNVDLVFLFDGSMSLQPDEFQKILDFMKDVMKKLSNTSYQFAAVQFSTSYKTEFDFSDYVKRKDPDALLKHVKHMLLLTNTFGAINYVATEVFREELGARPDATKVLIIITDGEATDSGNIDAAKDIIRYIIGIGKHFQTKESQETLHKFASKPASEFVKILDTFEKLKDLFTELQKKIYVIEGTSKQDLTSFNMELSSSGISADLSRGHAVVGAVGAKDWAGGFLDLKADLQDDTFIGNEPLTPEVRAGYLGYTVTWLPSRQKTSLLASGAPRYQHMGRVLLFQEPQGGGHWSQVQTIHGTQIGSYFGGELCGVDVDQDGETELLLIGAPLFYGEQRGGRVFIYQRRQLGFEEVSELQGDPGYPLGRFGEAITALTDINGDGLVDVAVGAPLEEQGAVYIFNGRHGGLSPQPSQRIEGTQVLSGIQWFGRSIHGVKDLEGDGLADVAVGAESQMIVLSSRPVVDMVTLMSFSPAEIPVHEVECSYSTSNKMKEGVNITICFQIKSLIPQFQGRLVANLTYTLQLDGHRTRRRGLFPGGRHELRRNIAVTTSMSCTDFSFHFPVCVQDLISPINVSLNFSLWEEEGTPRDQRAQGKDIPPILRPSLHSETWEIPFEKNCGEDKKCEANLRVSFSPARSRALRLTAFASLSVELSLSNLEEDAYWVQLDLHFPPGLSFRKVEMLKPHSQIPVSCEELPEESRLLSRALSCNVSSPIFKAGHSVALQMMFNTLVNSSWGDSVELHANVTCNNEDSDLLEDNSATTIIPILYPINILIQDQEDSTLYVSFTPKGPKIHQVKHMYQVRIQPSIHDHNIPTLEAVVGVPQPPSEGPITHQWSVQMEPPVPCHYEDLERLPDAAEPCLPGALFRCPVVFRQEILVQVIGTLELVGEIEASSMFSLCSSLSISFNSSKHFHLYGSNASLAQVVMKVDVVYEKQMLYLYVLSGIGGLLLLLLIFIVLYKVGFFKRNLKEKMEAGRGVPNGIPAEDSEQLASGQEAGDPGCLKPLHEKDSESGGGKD
LFA-1 and ICAM-1, sequence (P05107 23-769 partner): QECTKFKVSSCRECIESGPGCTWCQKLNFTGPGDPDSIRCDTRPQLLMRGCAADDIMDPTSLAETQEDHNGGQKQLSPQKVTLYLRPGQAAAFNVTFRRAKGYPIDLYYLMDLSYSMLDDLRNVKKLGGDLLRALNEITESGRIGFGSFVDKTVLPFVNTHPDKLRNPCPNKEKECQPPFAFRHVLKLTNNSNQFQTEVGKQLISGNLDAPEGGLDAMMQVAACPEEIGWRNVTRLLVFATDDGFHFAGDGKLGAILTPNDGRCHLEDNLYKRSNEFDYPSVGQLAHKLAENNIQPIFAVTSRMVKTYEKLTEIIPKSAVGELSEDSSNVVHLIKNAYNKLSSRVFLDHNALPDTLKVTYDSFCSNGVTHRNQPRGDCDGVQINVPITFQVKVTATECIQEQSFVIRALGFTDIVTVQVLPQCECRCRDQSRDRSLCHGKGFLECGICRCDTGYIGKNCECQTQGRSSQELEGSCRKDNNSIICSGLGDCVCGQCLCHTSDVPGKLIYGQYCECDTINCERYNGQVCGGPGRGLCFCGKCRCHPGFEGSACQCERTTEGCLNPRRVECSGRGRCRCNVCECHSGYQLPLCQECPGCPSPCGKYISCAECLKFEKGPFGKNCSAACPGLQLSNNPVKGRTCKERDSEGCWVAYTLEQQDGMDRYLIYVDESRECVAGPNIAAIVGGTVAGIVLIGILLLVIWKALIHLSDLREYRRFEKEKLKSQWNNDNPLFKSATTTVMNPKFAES

| Molecule | average fluorescence intensity of CD11a (CD11a; [13]) | number of the cells adhering to the vascular endothelial cells [2] | number of the cells adhering on the plate surface [3] | number of the cell expressing CD11a on the cell surface (CD11a) | rate to the total cells of the cells with expression of CD11a or CD18 (CD11a) | average fluorescence intensity of adhesion molecules (CD11b, CD11c, CD31, CD49d, CD49e, CD54, and CD62L) except CD11a and CD18 [5] | cellular cytotoxicity [7] | average fluorescence intensity of CD18 (CD18) | blastogenesis by Con-A or PHA [8] | inhibition effect on cell adhesion to the cell culture plate [3] | cellular cytotoxicity to the peripheral blood monocytes [9] | amount of the MTT dye taken up into the cells (total cultured cells) [9] | also measured |
| --- | --- | --- | --- | --- | --- | --- | --- | --- | --- | --- | --- | --- | --- |
| CC(C)c1c(C(=O)Nc2ccccc2)c(-c2ccccc2)c(-c2ccc(F)cc2)n1CC[C@@H](O)C[C@@H](O)CC(=O)O [atorvastatin] |  |  |  |  |  |  |  |  |  |  |  |  | monocyte adhesion to vascular endothelial cell [1]: inhibits monocyte adhesion to vascular endothelial cell |
| CC[C@H](C)C(=O)O[C@H]1C[C@@H](C)C=C2C=C[C@H](C)[C@H](CC[C@@H]3C[C@@H](O)CC(=O)O3)[C@H]21 [lovastatin] |  |  |  |  |  |  |  |  |  |  |  |  | adhesion between LFA-1 and ICAM-1 (LFA-1 and ICAM-1): blocks adhesion between LFA-1 and ICAM-1 |
| Cl.Cl.NCCCCN [putrescine, 1,4-Butanediamine dihydrochloride, reference compound] | not evident | not inhibited | not inhibited |  |  |  |  |  |  |  |  |  |  |
| NCCCCNCCCN [spermidine, N-aminobutyl-1,3-diaminopropane] | inhibited dependently on spermidine concentration |  | decreased with increase of spermine and spermidine concentrations | increased | not decreased | not decreased | no cellular cytotoxicity | decreased | rather enhanced | not exhibited | no cellular cytotoxicity | no reduction | 50% lethal dose (LD50) (rats [4]; rats, acute toxicity test): 600 mg/kg of body weight; amount up to which no side effect is observed (rats [6]; subacute toxicity test, administration for 6 weeks): up to 83 mg/kg of body weight/day |
| NCCCNCCCCNCCCN [spermine, 4,9-diazadodecane-1,12-diamine] | reduced as spermine concentration was increased; also recorded: strongest | low | decreased with increase of spermine and spermidine concentrations | increased | not decreased | not decreased | no cellular cytotoxicity | decreased with increase of spermine concentration | rather enhanced | not exhibited | no cellular cytotoxicity | no change | average fluorescence intensity of CD11a (decreasing effect) (CD11a; cells cultured for 20 to 26 hours): not observed; number of the cells having strong fluorescent intensity (CD11a histogram) (CD11a; cells supplemented with spermine): decreased; average fluorescence intensity of CD11a (CD11a; cultured with spermine 16 to 24 hours, washed, then cultured without spermine 48 to 56 hours): decrease of the average fluorescence intensity of CD11a; 50% lethal dose (LD50) (rats [4]; rat, in vivo): 600 mg/kg of body weight; expression rate of adhesion molecules (expression positive rate) ([5]; cells cultured with spermine): not decreased; average fluorescence intensity of CD62L ([5]; peripheral blood monocytes cultured with spermine): obviously increased dependently on spermine concentration; amount up to which no side effect is observed (rats [6]; rat, in vivo): up to 19 mg/kg of body weight/day; dead cells (VIA-Probe) ([7]; spermine concentration that most strongly decreased CD11a and CD18 fluorescence): not increased; average fluorescence intensity of cell membrane differentiation antigens other than the adhesion molecules ([10]; FIG. 8, cells cultured with spermine): no decrease; expression rate of cell membrane differentiation antigen except adhesion molecules (expression positive rate) ([10]; cells cultured with spermine): not decreased; concentration in meal at which it has toxicity (intestinal mucosa): ≥ 0.2%; cellular cytotoxicity (LAK activity) of the peripheral blood monocytes [11]: reduced; number of the adhering cells (vascular endothelial cells) ([2]; culture with 500 μM spermine for 20 hours): not decreased; inhibition of cell adhesion to the inside bottom of the culture plate ([3]; plate inverted and centrifuged (500 rpm, 5 minutes) after 70 to 82 hours culture): more remarkable result of the inhibition; expression of cell membrane differentiation antigen such as CD16, 31, 49d, and 54 (average fluorescence intensity) [12]: markedly decreased |
| efalizumab: a CD11a antibody |  |  |  |  |  |  |  |  |  |  |  |  | psoriasis symptoms (psoriasis): improved |
